Measured values as given in paper PMC11120720, “Linking Variability in Phytochemical Composition with Safety Profile of Thymus carnosus Boiss. Extracts: Effect of Major Compounds and Evaluation of Markers of Oxidative Stress and Cell Death” (International Journal of Molecular Sciences, 2024).
Read-outs that look alike come from different tables or passages of the source.

Legend:
[1] = tested on: Caco-2 cells; assay: Alamar Blue cell viability assay, Caco-2; assay type: cell-based, human; conditions: Homo sapiens, Caco-2
Method: (§1) The safety profile of T. carnosus AD and HE extracts was evaluated in Caco-2 and HepG2 cells using an Alamar Blue® (Invitrogen; Alfagene, Lisboa, Portugal) assay. An initial screening was performed for all extracts at concentrations ranging between 100 and 1000 µg/mL. Due to the higher toxicity of the HE extracts, which was previously described for various extracts of Thymus species using the same extraction methods (e.g., T. mastichina and Thymus zygis), a different set of concentrations was used for the HE extracts (between 100 and 300 µg/mL for Caco-2 cells and 50 and 150 µg/mL for HepG2 cells). Figure 1 presents the data related to the cell viability assays in Caco-2 (panels A–E) and HepG2 cells (panels F–J) exposed to T. carnosus extracts, as indicated.
(§2) The safety profile of T. carnosus extracts was assessed in Caco-2 and HepG2 cells. Caco-2 (human colon adenocarcinoma cell line) were obtained from CLS (Cell Lines Service, Eppelheim, Germany), and HepG2 (human hepatocellular carcinoma cell line) were obtained from ATCC (American Type Culture Collection, Manassas, VA, USA).
(§3) Cell culture maintenance, handling, subculturing, and seeding were performed as described by Silva et al., 2020 [5], and cell viability was assessed using an Alamar Blue® assay, as described by Andreani et al., 2014 [64]. Concentrations ranged between 100 and 1000 µg/mL for AD extracts in both cell lines and 100 to 300 µg/mL or 50 to 150 µg/mL for HE extracts in Caco-2 and HepG2 cells, respectively. The effect of individual compounds on cell viability was assessed for concentrations ranging from 50 to 300 µM. All test solutions were prepared by diluting the samples in FBS-free culture media from the stock solutions described in Section 3.2, just prior to being used.
(§4) The results are presented as mean ± SD of at least three independent assays. The calculation of IC50 values was performed as described by Silva et al., 2020 [5]. Data analysis, graphical design, and statistical analysis were performed using Microsoft Office Excel (Professional Plus 2019; Microsoft Corporation, Washington, DC, USA) and GraphPad Prism (Version 8; GraphPad Software Inc., San Diego, CA, USA). Flow cytometry data analysis was performed using BD Accuri™ C6 Software, version 1.0.264.21 (Becton Dickinson, San Diego, CA, USA).

[2] = tested on: HepG2 cells; assay: Alamar Blue cell viability assay, HepG2; assay type: cell-based, human; conditions: Homo sapiens, HepG2
Method: as §1, §2, §3, §4

[3] = tested on: Caco-2 cells; assay: Intracellular ROS (DCFDA, flow cytometry), Caco-2; assay type: cell-based; conditions: compound 50 µM, 24 h
Method: (§5) The cells were then equally divided for each assay.
(§6) Intracellular ROS level assessment was performed as described by Silva et al., 2022 [65], using dichlorodihydrofluorescein diacetate (DCFDA). Cells obtained in the previous step were centrifuged, the supernatant discarded, and 200 µL of DCFDA (10 µM in FBS-free DMEM) was added. Cells were incubated for 45 min (37 °C, in the dark), washed to remove excess probe, and resuspended in PBS for data acquisition.

[4] = tested on: HepG2 cells; assay: Intracellular ROS (DCFDA, flow cytometry), HepG2; assay type: cell-based, human; conditions: compound 50 µM, 24 h
Method: as §5, §6

[5] = tested on: HepG2 cells; assay: Mitochondrial membrane potential (JC-1, flow cytometry), HepG2; assay type: cell-based, human; conditions: compound 50 µM, 24 h
Method: Flow cytometry was used to analyze the effect of T. carnosus extracts on intracellular ROS, modulation of mitochondrial membrane potential (MMP), cell cycle arrest, and apoptotic/necrotic cell death induction.
Both one- and two-color assays were performed using a BD Accuri™ C6 cytometer (Becton Dickinson, Franklin Lakes, NJ, USA), and 10,000 gated events were collected from each sample [1]. For flow cytometry assays, cells were handled as described previously but seeded at a density 5 × 10^4 cells/mL (750 μL/well) in 12-well plates. Caco-2 and HepG2 cells were incubated for 24 h with the extracts (100 µg/mL) or individual phytochemicals (50 µM) diluted in FBS-free culture media h. After incubation, test solutions were removed; the cells were washed with PBS and detached from the plates using trypsin-EDTA. Once transferred to centrifuge tubes, the cells were centrifuged (bench micro-centrifuge; 3000 rpm; 3 min), the supernatant was discarded, and a new wash cycle was performed. The cells were then equally divided for each assay. A negative control was used in all assays consisting of nonexposed cells incubated only with culture media.
Mitochondrial membrane potential (MMP) was evaluated using 5,5″,6,6″-tetrachloro-1,1″,3,3″-tetraethylbenzimidazolylcarbocyanineiodide (JC-1). Cells were processed as described for DCFDA but incubated with 200 µL of JC-1 (2 µM, in FBS-free DMEM) for 20 min (37 °C, in the dark).

[6] = tested on: Caco-2 cells; assay: Cell cycle arrest (PI, flow cytometry), Caco-2; assay type: cell-based; conditions: compound 50 µM, 24 h; listed as UA
Method: as §5
(§7) Cell cycle arrest assessment was performed as described in [1]. Cells were processed as described above until cell detachment and centrifuged, after which the second washing step was performed with ice-cold PBS (0 °C). After centrifugation, the supernatant was discarded, and cells were fixed with 500 µL of ethanol:PBS solution (70:30, % v/v, previously cooled at −20 °C) for at least 4 h at −20 °C. After fixation, two washing cycles were performed: the first with ice-cold PBS (0 °C) and the second with room-temperature PBS, followed by the addition of 200 µL of a PBS solution containing PI (50 µg/mL), RNAse A (50 µg/mL), and Triton X-100 (0.1%). Cells were incubated for 30 min at 37 °C, and then cells were washed once with PBS to remove the staining solution. After resuspension in PBS, the data were acquired.

[7] = tested on: HepG2 cells; assay: Cell cycle arrest (PI, flow cytometry), HepG2; assay type: cell-based, human; conditions: compound 50 µM, 24 h
Method: as §5, §7

[8] = tested on: Caco-2 cells; assay: Annexin V-FITC/PI apoptosis/necrosis, Caco-2; assay type: cell-based; conditions: compound 50 µM, 24 h
Method: as §5
(§8) For the assessment of apoptotic/necrotic cell death, an Annexin V-FITC (Thermo Fisher Scientific, Waltham, MA, USA) and propidium iodide (PI; Merck, Darmstadt, Germany) double-staining assay was used to evaluate the apoptotic/necrotic cell death induced by T. carnosus extracts and by individual phytochemicals, as described previously. Briefly, after detachment and washing, the supernatant was discarded, and 200 µL of Annexin V-FITC (1:200 dilution in Annexin-binding buffer [10 mM HEPES sodium salt, 150 mM NaCl, 5 mM KCl, 5 mM MgCl2, and 1.8 mM CaCl2; pH = 7.4]) was added. Cells were incubated for 20 min (room temperature, in the dark). After incubation, 5 µL of propidium iodide (PI; 50 µg/mL) was added, the cells were incubated for 5 min on ice (in the dark), and the data were acquired.

[9] = tested on: HepG2 cells; assay: Annexin V-FITC/PI apoptosis/necrosis, HepG2; assay type: cell-based, human; conditions: compound 50 µM, 24 h
Method: as §5, §8

[10] = tested on: hepatocarcinoma cells (HuH7); design: method as in PMID 20415421; conditions: 20-80 µM; cited from earlier work
[11] = tested on: human glioblastoma cells (DBTRG-05MG); design: method as in PMID 25131308; conditions: cited from earlier work
[12] = tested on: colorectal cancer (HCT15) cells; design: method as in PMID 12046077; conditions: cited from earlier work
[13] = design: method as in PMID 31344882, PMID 26042707; conditions: cited from earlier work
[14] = tested on: HepG2 cells; conditions: read-out: IC50, HepG2 cells; 72 h; cited from earlier work

C[C@H]1[C@H](C)CC[C@]2(C(=O)O)CC[C@]3(C)C(=CC[C@@H]4[C@@]5(C)CC[C@H](O)C(C)(C)[C@@H]5CC[C@]43C)[C@H]12 [Ursolic acid, ursolic acid]
IC50 ([1]; 24 h exposure, read-out: IC50 (µM) - Caco-2 cells: 24 h): 59 ± 1.35 µM | IC50 ([1]; 48 h exposure, read-out: IC50 (µM) - Caco-2 cells: 48 h): 44.3 ± 2.31 µM | IC50 ([2]; 24 h exposure, read-out: IC50 (µM) - HepG2 cells: 24 h): 79.6 ± 2.45 µM | IC50 ([2]; 48 h exposure, read-out: IC50 (µM) - HepG2 cells: 48 h): 75.2 ± 1.97 µM | change in intracellular ROS, Caco-2 [3]: increase in ROS | change in intracellular ROS, HepG2 [4]: significant (p < 0.05) increase in intracellular HepG2 ROS levels | MMP modulation, HepG2 [5]: slight increase | cell cycle effect, Caco-2 [6]: cell cycle arrest in G0/G1 | cell cycle effect, HepG2 [7]: no UA-induced cytostatic effect | percentage of cells in late apoptosis, Caco-2 [8]: ~ 70% | percentage of cells in necrosis, Caco-2 [8]: ~ 12% | cell death induction, HepG2 [9]: only slightly increased (p < 0.05) the percentage of necrotic cells | MMP modulation, HuH7 [10]: reduce MMP | cell death type, DBTRG-05MG ([11]; 17.50 µM): mitochondria-dependent necrosis | MMP modulation, DBTRG-05MG [11]: transient hyperpolarization of the mitochondria membrane | cell cycle effect, HCT15 [12]: cytostatic effect in the G0/G1 phase | lipophilicity [13]: high lipophilicity | water solubility [13]: poor water solubility | IC50 [14]: 41 µM
